Assay results: PMC10687119, “Quaternary Ammonium Salts of Cationic Lipopeptides with Lysine Residues — Synthesis, Antimicrobial, Hemolytic and Cytotoxic Activities” (Probiotics and Antimicrobial Proteins, 2023)
≈ marks a conversion by molar mass, not a printed value. Where two headings read alike, the source gives them in different places. Where a SMILES comes first, the peptide text is derived from it. The star is where a group is joined. Stearoyl = CCCCCCCCCCCCCCCCCC(=O)*; Palmitoyl = CCCCCCCCCCCCCCCC(=O)*

How the values were obtained:
E. faecium ATCC 700221 = format: cell-based, Enterococcus faecium
Procedure: (§1) The Acinetobacter baumannii ATCC BAA-1605, Enterococcus faecium ATCC 700221, Klebsiella aerogenes ATCC 13048, Klebsiella pneumoniae ATCC 700603, Pseudomonas aeruginosa ATCC 9027, Staphylococcus aureus ATCC 33591, Candida glabrata ATCC 15126 strains were acquired from the American Type Culture Collection (ATCC, Manassas, USA). All the strains were stored at −80 °C in Roti-Store cryo vials (Carl Roth GmbH, Germany) and before the tests were transferred into fresh Mueller–Hinton broth (MHB, Becton Dickinson, Poland) for bacteria or RPMI-1640 (Sigma-Aldrich, Germany) for fungi and incubated for 24 h at 37 °C. Then, the cultures were cultured on the Mueller–Hinton agar (BioMaxima, Poland) or Sabouraud dextrose agar (SDA, BioMaxima) plates, respectively, and incubated as just mentioned. For microbiological assays, a minimum of three to five well-isolated colonies of the same morphological type were carefully picked from the agar cultures. These colonies were transferred with sterile loop into fresh microbiological medium and incubated with shaking (100 rpm) at 37 °C until they reached logarithmic phase of growth. Cell densities for all assays were adjusted through spectrophotometric measurements (Multiskan GO Microplate Spectrophotometer, Thermo Fisher Scientific, Finland) at 600 and 530 nm for bacteria and fungi, respectively.
(§2) The MICs were determined by broth microdilution method according to the Clinical and Laboratory Standard Institute guidelines. For this purpose, initial inoculums of bacteria (5 × 10^5 CFU/mL) in MHB and yeasts (2 × 10^3 CFU/mL) in RPMI-1640 with 2% D-glucose were exposed to the ranging concentration of lipopeptides (1–512 μg/mL) and incubated at 37 °C for 18 h and 24 h, respectively. The experiments were conducted on 96-well microtiter polystyrene plates (Kartell, Italy). The growth was assessed visually after incubation and the MIC was assumed as the lowest peptide concentration at which a noticeable growth of microorganisms was inhibited. Benzalkonium chloride (Sigma-Aldrich, Germany) was used as reference compound. All experiments were conducted in triplicate.

[1] = test system: K. pneumoniae ATCC 700603; format: cell-based, Klebsiella pneumoniae
Procedure: as §1, §2

[2] = test system: A. baumannii ATCC BAA 1605; format: cell-based, Acinetobacter baumannii
Procedure: as §1, §2

P. aeruginosa ATCC 9027 = format: cell-based, Pseudomonas aeruginosa
Procedure: as §1, §2

K. aerogenes ATCC 13048 = format: cell-based, Klebsiella aerogenes
Procedure: as §1, §2

C. glabrata ATCC 15126 = format: cell-based, Candida glabrata
Procedure: as §1, §2

[3] = test system: human red blood cells (RBCs); format: cell-based; details: red cells of human
Procedure: The hemolysis assay was conducted using a procedure described previously. For this purpose, human red blood cells (RBCs) isolated from K2EDTA Single Donor Human Whole blood (Innovative Research, Inc, MI, USA) were rinsed with Phosphate-buffer saline (PBS, pH 7.4±0.05, composition - KCl 2.7 mM, NaCl 140 mM, phosphate 10mM; AppliChem GmbH, Germany) by centrifugation for 10 min at 800 × g. This process was repeated 3 times and the RBCs were resuspended in PBS. Then, the stock solution of RBCs was added to the serial dilution of lipopeptides on 96-well polystyrene plates to reach a final volume of 100 μL with a 4% concentration of erythrocytes (v/v) and a concentration range of 1-512 μg/mL of tested compounds. The control wells for 0% and 100% hemolysis consisted of RBCs suspended in PBS and 1% of Triton X-100 (Sigma-Aldrich, Germany), respectively. Benzalkonium chloride (Sigma-Aldrich, Germany) was used as reference compound. Subsequently, the plates were incubated for 60 min at 37 °C and then centrifuged at 800 × g for 10 min at 4 °C (Sorvall ST […] Centrifuge, Thermo Scientific). The supernatant was carefully […] to new microtiter plates. The release of hemoglobin was monitored absorbance measurements at 540 nm (MultiskanTM GO Microplate Spectrophotometer, Thermo Scientific). All experiments were conducted in triplicate. HC50 was calculated using an ic50.tk tool.

[4] = test system: human keratinocyte cell line (HaCaT); format: cell-based; details: 24 h
Procedure: The immortalized human keratinocyte cell line (HaCaT), obtained from CLS (Cell Line Service, Germany) was cultured in DMEM-high glucose (Dulbecco’s Modified Eagle Medium) supplemented with 10% fetal bovine serum, 2 mM L-glutamine, 100 U/mL penicillin and 100 μg/mL streptomycin (Sigma-Aldrich; Merck KGaA) at 37 °C in a humidified atmosphere with 5% CO2. Cells were trypsinized, and the medium was renewed 2–3 times per week. The cytotoxicity of compounds was assessed by colorimetric CellTilter 96® Aqueous One Solution Cell Proliferation Assay (Promega, USA), containing a tetrazolium compound according to the manufacturer’s instructions. In brief, 7 × 10^3 HaCaT cells per well were plated on 96-well plates and incubated per night to adhere to the cultured dishes. After that time, different concentrations of the tested compounds ranging from 512 to 1 μg/mL were applied to the wells. Every compound was medium-soluble at 37 °C; thus, the non-treated cells were negative control. Serial dilutions of the tested compounds were always prepared before use. Cells were incubated with drugs for 24 h, and then, 20 μL of the CellTiter 96®AqueousOne Solution Reagent was added to each well containing treated cells in 100 µl of culture medium. After 4 h of incubation at 37 °C, the absorbance at 490 nm was recorded using a microplate reader (Epoch, BioTek Instruments, USA). The quantity of formazan product as measured by the amount of 490 nm absorbance is directly proportional to the number of living cells in culture. Benzalkonium chloride (Sigma-Aldrich, Germany) was used as reference compound. At least three independent experiments with two replicates were conducted for each concentration of a compound, and the IC50 values were calculated using GraphPad Prism 8 software.

S. aureus ATCC 33591 = format: cell-based, Staphylococcus aureus
Procedure: as §1, §2

[5] = S. aureus ATCC 33591, 18 h, 37 °C
[6] = C. glabrata ATCC 15126, 24 h, 37 °C

MIC (E. faecium ATCC 700221; ATCC 700221, 18 h) [µg/mL] | MIC ([1]; ATCC 700603, 18 h) [µg/mL] | MIC ([2]; ATCC BAA 1605, 18 h) [µg/mL] | MIC (P. aeruginosa ATCC 9027; ATCC 9027, 18 h) [µg/mL] | MIC (K. aerogenes ATCC 13048; ATCC 13048, 18 h) [µg/mL] | MIC (C. glabrata ATCC 15126; ATCC 15126, 24 h) [µg/mL] | HC50 [3] [µg/mL] | MIC (S. aureus ATCC 33591; ATCC 33591, 18 h) [µg/mL] | MIC (E. faecium ATCC 700221; E. faecium ATCC 700221, 18 h, 37 °C) [µg/mL] | MIC (S. aureus ATCC 33591; [5]) [µg/mL] | MIC ([1]; K. pneumoniae ATCC 700603, 18 h, 37 °C) [µg/mL] | MIC ([2]; A. baumannii ATCC BAA 1605, 18 h, 37 °C) [µg/mL] | MIC (P. aeruginosa ATCC 9027; P. aeruginosa ATCC 9027, 18 h, 37 °C) [µg/mL] | MIC (K. aerogenes ATCC 13048; K. aerogenes ATCC 13048, 18 h, 37 °C) [µg/mL] | MIC (C. glabrata ATCC 15126; [6]) [µg/mL] | Molecule | IC50 [4] [µg/mL] | IC50 ([4]; HaCaT) [µg/mL]
8 (≈ 15.6 µM) | 128 (≈ 250 µM) | 64 (≈ 125 µM) | 16 (≈ 31.3 µM) | 32 (≈ 62.5 µM) | 16 (≈ 31.3 µM) | 55.21 ± 1.69 |  |  |  |  |  |  |  |  | CCCCCCCCCCCCCCCC(=O)N[C@@H](CCCCN)C(=O)N[C@@H](CCCCN)C(N)=O [Peptide 2P, C16-KK-NH2] | 10.27 ± 1.59 (≈ 20.1 µM) | 
4 (≈ 5.21 µM) | 32 (≈ 41.7 µM) | 64 (≈ 83.3 µM) | 32 (≈ 41.7 µM) | 8 (≈ 10.4 µM) | 64 (≈ 83.3 µM) | >512 |  |  |  |  |  |  |  |  | CCCCCCCCCCCCCCCC(=O)N[C@@H](CCCCN)C(=O)N[C@@H](CCCCN)C(=O)N[C@@H](CCCCN)C(=O)N[C@@H](CCCCN)C(N)=O [Peptide 4P, C16-KKKK-NH2] (Palmitoyl-KKKK-NH2) | 126.80 ± 27.26 (≈ 165 µM) | 
8 (≈ 12.5 µM) | 32 (≈ 50 µM) | 64 (≈ 100 µM) | 32 (≈ 50 µM) | 8 (≈ 12.5 µM) | 64 (≈ 100 µM) | 135.46 ± 8.69 |  |  |  |  |  |  |  |  | CCCCCCCCCCCCCCCC(=O)N[C@@H](CCCCN)C(=O)N[C@@H](CCCCN)C(=O)N[C@@H](CCCCN)C(N)=O [Peptide 3P, C16-KKK-NH2] | 45.40 ± 20.45 (≈ 70.9 µM) | 
4 (≈ 5.99 µM) | 8 (≈ 12 µM) | 32 (≈ 47.9 µM) | 16 (≈ 24 µM) | 4 (≈ 5.99 µM) | 8 (≈ 12 µM) | 32.11 ± 1.54 |  |  |  |  |  |  |  |  | CCCCCCCCCCCCCCCCCC(=O)N[C@@H](CCCCN)C(=O)N[C@@H](CCCCN)C(=O)N[C@@H](CCCCN)C(N)=O [Peptide 3S, C18-KKK-NH2] | 88.51 ± 4.72 (≈ 132 µM) | 
4 (≈ 5.02 µM) | 8 (≈ 10 µM) | 16 (≈ 20.1 µM) | 8 (≈ 10 µM) | 4 (≈ 5.02 µM) | 16 (≈ 20.1 µM) | 48.44 ± 4.12 |  |  |  |  |  |  |  |  | CCCCCCCCCCCCCCCCCC(=O)N[C@@H](CCCCN)C(=O)N[C@@H](CCCCN)C(=O)N[C@@H](CCCCN)C(=O)N[C@@H](CCCCN)C(N)=O [Peptide 4S, C18-KKKK-NH2] (Stearoyl-KKKK-NH2) | 155.34 ± 11.20 (≈ 195 µM) | 
4 (≈ 7.41 µM) | 64 (≈ 119 µM) | 32 (≈ 59.3 µM) | 128 (≈ 237 µM) | 32 (≈ 59.3 µM) | 8 (≈ 14.8 µM) | 21.88 ± 0.68 |  |  |  |  |  |  |  |  | CCCCCCCCCCCCCCCCCC(=O)N[C@@H](CCCCN)C(=O)N[C@@H](CCCCN)C(N)=O [Peptide 2S, C18-KK-NH2] | 4.33 ± 0.79 (≈ 8.02 µM) | 

More lines, now with the values behind:

Molecule | MIC (E. faecium ATCC 700221; ATCC 700221, 18 h) [µg/mL] | MIC ([1]; ATCC 700603, 18 h) [µg/mL] | MIC ([2]; ATCC BAA 1605, 18 h) [µg/mL] | MIC (P. aeruginosa ATCC 9027; ATCC 9027, 18 h) [µg/mL] | MIC (K. aerogenes ATCC 13048; ATCC 13048, 18 h) [µg/mL] | MIC (C. glabrata ATCC 15126; ATCC 15126, 24 h) [µg/mL] | HC50 [3] [µg/mL] | MIC (S. aureus ATCC 33591; ATCC 33591, 18 h) [µg/mL] | MIC (E. faecium ATCC 700221; E. faecium ATCC 700221, 18 h, 37 °C) [µg/mL] | MIC (S. aureus ATCC 33591; [5]) [µg/mL] | MIC ([1]; K. pneumoniae ATCC 700603, 18 h, 37 °C) [µg/mL] | MIC ([2]; A. baumannii ATCC BAA 1605, 18 h, 37 °C) [µg/mL] | MIC (P. aeruginosa ATCC 9027; P. aeruginosa ATCC 9027, 18 h, 37 °C) [µg/mL] | MIC (K. aerogenes ATCC 13048; K. aerogenes ATCC 13048, 18 h, 37 °C) [µg/mL] | MIC (C. glabrata ATCC 15126; [6]) [µg/mL] | IC50 [4] [µg/mL] | IC50 ([4]; HaCaT) [µg/mL]
CCCCCCCCCCCCCCCC(=O)N[C@@H](CCCCN)C(N)=O [Peptide 1P, C16-K-NH2] | 4 (≈ 10.4 µM) | >512 |  | >512 | >512 | >512 | >512 | >512 |  |  |  |  |  |  |  | 1.74 ± 0.49 (≈ 4.54 µM) | 
benzalkonium chloride [BAC, reference compound] |  |  |  |  |  |  |  |  | 4 | 4 | 16 | 16 | 32 | 16 | 4 |  | 11.70 ± 0.76
CCCCCCCCCCCCCCCCCC(=O)N[C@@H](CCCCN)C(N)=O [Peptide 1S, C18-K-NH2] |  | >512 | >512 | >512 | >512 |  | >512 |  |  | > 512 |  |  |  |  |  | 8.34 ± 1.07 (≈ 20.3 µM) | 
CCCCCCCCCCCCCCCCCC(=O)N[C@@H](CCCC[N+](C)(C)C)C(N)=O [Peptide 1Sq, C18-K(Me3)^+-NH2] |  | >512 | >512 | >512 | >512 | 4 to 8 | 16.13 ± 9.88 |  |  |  |  |  |  |  | 4 | 14.13 ± 0.39 | 
